Experimental data published in paper PMC4503722, “Novel Phenotypic Outcomes Identified for a Public Collection of Approved Drugs from a Publicly Accessible Panel of Assays” (PLoS ONE, 2015).

Legend:
[1] = system: ECFC/ADSC co-culture cell nuclei number; settings: for IC50: read-out: VEGF_ADSC\ECFC Angio Hoechst NucArea summarized IC50
[2] = system: endothelial tube formation in co-cultures of ECFCs and ADSCs treated with VEGF; experiment: cells; type: cell-based, human; settings: for IC50: read-out: VEGF_ADSC\ECFC Angio CD31 TubeArea summarized IC50

Which results are given for `CC[C@]1(O)CC[C@H]2[C@@H]3CCC4=CCCC[C@@H]4[C@H]3CC[C@@]21C` [NCGC00167514-02]?
VEGF_ADSC\ECFC Angio Hoechst NucArea IC50/EC50 [1]: > 10 µM; VEGF_ADSC\ECFC Angio CD31 TubeArea IC50/EC50 [2]: 6.2451 µM

Which results are given for `CCN1CCC[C@H]1CNC(=O)c1c(OC)ccc(Br)c1OC` [NCGC00024870-06]?
VEGF_ADSC\ECFC Angio Hoechst NucArea IC50/EC50 [1]: > 10 µM; VEGF_ADSC\ECFC Angio CD31 TubeArea IC50/EC50 [2]: > 10 µM

Which “VEGF_ADSC\ECFC Angio Hoechst NucArea IC50/EC50” value [1] does the source give for `OCCN1CCN(CCCN2c3ccccc3Sc3ccc(C(F)(F)F)cc32)CC1` [NCGC00015436-11] here?
The value was greater than 10 µM.

And the “VEGF_ADSC\ECFC Angio CD31 TubeArea IC50/EC50” value [2]?
The value was greater than 10 µM.

`CC(C(O)c1ccccc1)N(C)C/C=C/c1ccccc1` (stereo not drawn) [NCGC00249896-01] was tested. Which “VEGF_ADSC\ECFC Angio Hoechst NucArea IC50/EC50” value [1] did it give?
The value was greater than 10 µM.

And the “VEGF_ADSC\ECFC Angio CD31 TubeArea IC50/EC50” value [2]?
The value was greater than 10 µM.

Which results are given for `COc1cc(S(N)(=O)=O)cc(C(=O)O)c1OC` [NCGC00253657-01]?
VEGF_ADSC\ECFC Angio Hoechst NucArea IC50/EC50 [1]: > 10 µM; VEGF_ADSC\ECFC Angio CD31 TubeArea IC50/EC50 [2]: > 10 µM

Which “IC50/EC50, VEGF_ADSC\ECFC Angio Hoechst NucArea (assay number 3)” value (shortened to “IC50/EC50 … (assay number 3)”) [1] does the source give for `Cc1cccc(C)c1NC(=O)CN1CCN(CCCC(c2ccc(F)cc2)c2ccc(F)cc2)CC1` [NCGC00016627-04] here?
Its value is 9.37 µM.

What about the “IC50/EC50, VEGF_ADSC\ECFC Angio CD31 TubeArea (assay number 2)” value (from here on “IC50/EC50 … (assay number 2)”) [2] of the same molecule?
Its value is greater than 10 µM.

With `CCCCCCCCCCCC[N+](C)(C)CCOc1ccccc1` [NCGC00091010-03] as the molecule, how does the IC50 [1] read?
The IC50 was 7.29 µM.

What about the IC50 [2] of the same molecule?
The IC50 was 3.38 µM.

What does the source list for `CCCSS/C(CCO)=C(\C)N(C=O)Cc1cnc(C)nc1N` [NCGC00167447-02]?
VEGF_ADSC\ECFC Angio Hoechst NucArea IC50/EC50 [1]: > 10 µM; VEGF_ADSC\ECFC Angio CD31 TubeArea IC50/EC50 [2]: > 10 µM

For `O=C(c1ccc(F)cc1)C1CCN(CCn2c(=O)[nH]c3ccccc3c2=O)CC1` [NCGC00021146-09], which “VEGF_ADSC\ECFC Angio Hoechst NucArea IC50/EC50” value [1] is on record?
The value was greater than 10 µM.

What about the “VEGF_ADSC\ECFC Angio CD31 TubeArea IC50/EC50” value [2] of the same molecule?
Its value is greater than 10 µM.

For `O=c1oc2c(O)c(O)cc3c(=O)oc4c(O)c(O)cc1c4c23` [NCGC00017245-10], which “VEGF_ADSC\ECFC Angio Hoechst NucArea IC50/EC50” value [1] is on record?
The value was greater than 10 µM.

And the “VEGF_ADSC\ECFC Angio CD31 TubeArea IC50/EC50” value [2]?
Its value is greater than 10 µM.

For `Cc1[nH]cnc1C[C@H]1CCc2c(C)c3ccccc3n2C1=O` [NCGC00249415-01], which “VEGF_ADSC\ECFC Angio Hoechst NucArea IC50/EC50” value [1] is on record?
The value was greater than 10 µM.

And the “VEGF_ADSC\ECFC Angio CD31 TubeArea IC50/EC50” value [2]?
The value was greater than 10 µM.

What does the source list for `CC(=O)O[C@H]1C[C@H](O[C@H]2[C@@H](O)C[C@H](O[C@@H]3[C@@H](O)C[C@H](O[C@H]4CC[C@@]5(C)[C@H](CC[C@@H]6[C@H]5C[C@@H](O)[C@]5(C)[C@@H](C7=CC(=O)OC7)CC[C@]65O)C4)O[C@@H]3C)O[C@@H]2C)O[C@H](C)[C@H]1O[C@@H]1O[C@H](CO)[C@@H](O)[C@H](O)[C@@H]1O` [NCGC00344547-01]?
VEGF_ADSC\ECFC Angio Hoechst NucArea IC50/EC50 [1]: 0.2792 µM; VEGF_ADSC\ECFC Angio CD31 TubeArea IC50/EC50 [2]: 0.0702 µM

With `O=[N+]([O-])c1cc(I)c(O)c(I)c1` [NCGC00166241-02] as the molecule, how does the IC50 [1] read?
The IC50 was greater than 10 µM.

What about the IC50 [2] of the same molecule?
The IC50 was greater than 10 µM.

Which results are given for `CC(=O)Oc1cccc2c1C(=O)c1c(OC(C)=O)cc(C(=O)O)cc1C2=O` [NCGC00018274-05]?
IC50/EC50, VEGF_ADSC\ECFC Angio Hoechst NucArea (assay number 3) [1]: > 10 µM; IC50/EC50, VEGF_ADSC\ECFC Angio CD31 TubeArea (assay number 2) [2]: > 10 µM

For `CN(C)CCOC1=Cc2ccccc2Sc2ccc(Cl)cc21` [NCGC00182081-04], which “VEGF_ADSC\ECFC Angio Hoechst NucArea IC50/EC50” value [1] is on record?
Its value is greater than 10 µM.

What about the “VEGF_ADSC\ECFC Angio CD31 TubeArea IC50/EC50” value [2] of the same molecule?
Its value is greater than 10 µM.

Which results are given for `COc1cccc(CCc2ccccc2OCC(CN(C)C)OC(=O)CCC(=O)O)c1.Cl` (stereo not drawn) [NCGC00167489-03]?
VEGF_ADSC\ECFC Angio Hoechst NucArea IC50/EC50 [1]: > 10 µM; VEGF_ADSC\ECFC Angio CD31 TubeArea IC50/EC50 [2]: > 10 µM

`Cc1ccc(C(=O)Oc2ccc(C(O)CNC(C)(C)C)cc2OC(=O)c2ccc(C)cc2)cc1` (stereo not drawn) [NCGC00253593-01] was tested. Which “VEGF_ADSC\ECFC Angio Hoechst NucArea IC50/EC50” value [1] did it give?
Its value is greater than 10 µM.

What about the “VEGF_ADSC\ECFC Angio CD31 TubeArea IC50/EC50” value [2] of the same molecule?
The value was greater than 10 µM.

With `Oc1ccc(O)cc1` [NCGC00015523-13] as the molecule, how does the IC50 [1] read?
The IC50 was greater than 10 µM.

And the IC50 [2]?
The IC50 was greater than 10 µM.

How did the “IC50/EC50 … (assay number 3)” value [1] turn out when `CCCCC(=O)O[C@H]1CC[C@H]2[C@@H]3CCc4cc(O)ccc4[C@@H]3CC[C@]12C` [NCGC00022275-03] was run?
The value was 8.298 µM.

What about the “IC50/EC50 … (assay number 2)” value [2] of the same molecule?
The value was greater than 10 µM.

For `CCOC(=O)C1=C[C@]2(CC)CCCN3CCc4c(n1c1ccccc41)[C@@H]32` [NCGC00018204-13], which “IC50/EC50 … (assay number 3)” value [1] is on record?
The value was greater than 10 µM.

What about the “IC50/EC50 … (assay number 2)” value [2] of the same molecule?
The value was greater than 10 µM.

Which results are given for `OC[C@@H](O)[C@@H](O)[C@H](O)[C@@H](O)CO` [NCGC00164353-05]?
VEGF_ADSC\ECFC Angio Hoechst NucArea IC50/EC50 [1]: > 10 µM; VEGF_ADSC\ECFC Angio CD31 TubeArea IC50/EC50 [2]: > 10 µM
